What was measured:
Assay in all cases: Competitive isoTOP-ABPP in situ (fragment-treated cells)
Type in all cases: cell-based
[1] = target: T1, cysteines in MDA-MB-231 and Ramos cells (Homo sapiens, UniProt Q9P0J1)
T1 sequence (Q9P0J1 72-537): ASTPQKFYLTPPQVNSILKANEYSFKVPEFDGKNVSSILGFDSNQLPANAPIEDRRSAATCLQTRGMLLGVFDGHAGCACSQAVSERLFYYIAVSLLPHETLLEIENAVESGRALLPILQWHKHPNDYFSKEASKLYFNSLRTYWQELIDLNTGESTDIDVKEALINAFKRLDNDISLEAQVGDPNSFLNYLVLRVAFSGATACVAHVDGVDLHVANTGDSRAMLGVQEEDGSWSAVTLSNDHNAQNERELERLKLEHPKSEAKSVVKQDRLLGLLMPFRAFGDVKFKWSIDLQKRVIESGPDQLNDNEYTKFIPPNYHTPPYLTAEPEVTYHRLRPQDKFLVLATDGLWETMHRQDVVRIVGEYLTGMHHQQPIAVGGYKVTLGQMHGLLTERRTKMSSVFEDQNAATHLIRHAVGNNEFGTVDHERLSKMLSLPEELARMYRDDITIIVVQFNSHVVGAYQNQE

[2] = target: cysteines in MDA-MB-231 and Ramos cells (Homo sapiens, UniProt P48643)
[3] = target: T2, cysteines in MDA-MB-231 and Ramos cells (Homo sapiens, UniProt Q96RU2)
T2 sequence (Q96RU2 1-1077): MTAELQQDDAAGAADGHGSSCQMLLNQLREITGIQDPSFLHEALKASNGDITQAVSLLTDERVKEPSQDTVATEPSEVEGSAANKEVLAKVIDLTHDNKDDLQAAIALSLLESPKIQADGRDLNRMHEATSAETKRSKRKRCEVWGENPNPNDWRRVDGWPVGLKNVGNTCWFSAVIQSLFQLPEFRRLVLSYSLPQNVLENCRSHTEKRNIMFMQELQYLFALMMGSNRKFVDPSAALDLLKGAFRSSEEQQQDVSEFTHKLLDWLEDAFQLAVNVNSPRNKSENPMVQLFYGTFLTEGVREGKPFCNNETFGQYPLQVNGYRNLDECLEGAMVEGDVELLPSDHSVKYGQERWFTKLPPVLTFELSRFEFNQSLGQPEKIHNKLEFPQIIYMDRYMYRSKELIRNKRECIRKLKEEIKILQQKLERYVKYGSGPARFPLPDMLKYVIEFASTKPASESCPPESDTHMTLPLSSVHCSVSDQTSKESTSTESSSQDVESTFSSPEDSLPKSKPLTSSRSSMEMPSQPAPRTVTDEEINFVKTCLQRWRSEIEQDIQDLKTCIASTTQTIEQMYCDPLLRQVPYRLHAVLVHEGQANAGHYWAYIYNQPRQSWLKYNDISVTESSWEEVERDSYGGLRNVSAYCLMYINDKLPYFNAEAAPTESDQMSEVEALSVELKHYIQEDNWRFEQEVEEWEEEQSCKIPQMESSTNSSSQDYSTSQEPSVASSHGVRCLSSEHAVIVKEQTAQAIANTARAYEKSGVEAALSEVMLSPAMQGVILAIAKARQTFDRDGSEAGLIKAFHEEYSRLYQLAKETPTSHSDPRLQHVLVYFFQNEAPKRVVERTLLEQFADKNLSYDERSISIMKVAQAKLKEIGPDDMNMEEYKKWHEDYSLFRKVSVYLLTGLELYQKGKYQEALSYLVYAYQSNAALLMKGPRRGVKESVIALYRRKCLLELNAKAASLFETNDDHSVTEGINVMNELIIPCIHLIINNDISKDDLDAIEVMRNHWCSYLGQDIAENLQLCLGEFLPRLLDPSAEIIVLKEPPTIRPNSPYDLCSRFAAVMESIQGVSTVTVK

[4] = target: cysteines in MDA-MB-231 and Ramos cells (Homo sapiens, UniProt P51812)
[5] = target: cysteines in MDA-MB-231 and Ramos cells (Homo sapiens, UniProt Q06203); conditions: 200 μM, insitu
[6] = target: cysteines in MDA-MB-231 and Ramos cells (Homo sapiens, UniProt Q9UNI6); conditions: 200 μM, insitu, 231
[7] = target: T3, cysteines in MDA-MB-231 and Ramos cells (Homo sapiens, UniProt P53384); conditions: 200 μM, insitu, 231
T3 sequence (P53384 1-320): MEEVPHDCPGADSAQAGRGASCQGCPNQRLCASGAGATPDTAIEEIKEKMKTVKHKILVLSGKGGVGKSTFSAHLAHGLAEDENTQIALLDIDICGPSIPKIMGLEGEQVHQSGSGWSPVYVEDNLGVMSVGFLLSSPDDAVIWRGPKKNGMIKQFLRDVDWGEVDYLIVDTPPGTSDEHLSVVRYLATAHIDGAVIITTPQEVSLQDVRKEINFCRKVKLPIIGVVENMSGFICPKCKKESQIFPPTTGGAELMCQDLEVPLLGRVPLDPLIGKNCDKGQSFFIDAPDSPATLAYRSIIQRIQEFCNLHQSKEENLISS

[8] = target: T4, cysteines in MDA-MB-231 and Ramos cells (Homo sapiens, UniProt O14733); conditions: 200 μM, insitu
T4 sequence (O14733 1-419): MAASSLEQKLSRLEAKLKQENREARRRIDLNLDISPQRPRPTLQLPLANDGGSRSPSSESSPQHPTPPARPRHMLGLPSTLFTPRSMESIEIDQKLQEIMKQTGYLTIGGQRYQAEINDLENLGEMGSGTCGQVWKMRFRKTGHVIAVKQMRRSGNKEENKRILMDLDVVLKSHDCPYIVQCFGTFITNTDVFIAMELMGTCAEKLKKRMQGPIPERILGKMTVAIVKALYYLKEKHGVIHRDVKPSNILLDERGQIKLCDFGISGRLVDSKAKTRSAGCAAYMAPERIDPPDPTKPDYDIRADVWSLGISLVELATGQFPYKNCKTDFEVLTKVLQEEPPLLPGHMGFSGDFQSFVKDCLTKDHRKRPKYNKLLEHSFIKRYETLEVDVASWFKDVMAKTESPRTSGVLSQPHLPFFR

[9] = target: cysteines in MDA-MB-231 and Ramos cells (Homo sapiens, UniProt P04818); conditions: 200 μM, insitu
[10] = target: cysteines in MDA-MB-231 and Ramos cells (Homo sapiens, UniProt Q6XZF7); conditions: 200 μM, insitu
cysteines in MDA-MB-231 and Ramos cells (Homo sapiens, UniProt Q6XZF7), sequence (Q6XZF7 whole entry): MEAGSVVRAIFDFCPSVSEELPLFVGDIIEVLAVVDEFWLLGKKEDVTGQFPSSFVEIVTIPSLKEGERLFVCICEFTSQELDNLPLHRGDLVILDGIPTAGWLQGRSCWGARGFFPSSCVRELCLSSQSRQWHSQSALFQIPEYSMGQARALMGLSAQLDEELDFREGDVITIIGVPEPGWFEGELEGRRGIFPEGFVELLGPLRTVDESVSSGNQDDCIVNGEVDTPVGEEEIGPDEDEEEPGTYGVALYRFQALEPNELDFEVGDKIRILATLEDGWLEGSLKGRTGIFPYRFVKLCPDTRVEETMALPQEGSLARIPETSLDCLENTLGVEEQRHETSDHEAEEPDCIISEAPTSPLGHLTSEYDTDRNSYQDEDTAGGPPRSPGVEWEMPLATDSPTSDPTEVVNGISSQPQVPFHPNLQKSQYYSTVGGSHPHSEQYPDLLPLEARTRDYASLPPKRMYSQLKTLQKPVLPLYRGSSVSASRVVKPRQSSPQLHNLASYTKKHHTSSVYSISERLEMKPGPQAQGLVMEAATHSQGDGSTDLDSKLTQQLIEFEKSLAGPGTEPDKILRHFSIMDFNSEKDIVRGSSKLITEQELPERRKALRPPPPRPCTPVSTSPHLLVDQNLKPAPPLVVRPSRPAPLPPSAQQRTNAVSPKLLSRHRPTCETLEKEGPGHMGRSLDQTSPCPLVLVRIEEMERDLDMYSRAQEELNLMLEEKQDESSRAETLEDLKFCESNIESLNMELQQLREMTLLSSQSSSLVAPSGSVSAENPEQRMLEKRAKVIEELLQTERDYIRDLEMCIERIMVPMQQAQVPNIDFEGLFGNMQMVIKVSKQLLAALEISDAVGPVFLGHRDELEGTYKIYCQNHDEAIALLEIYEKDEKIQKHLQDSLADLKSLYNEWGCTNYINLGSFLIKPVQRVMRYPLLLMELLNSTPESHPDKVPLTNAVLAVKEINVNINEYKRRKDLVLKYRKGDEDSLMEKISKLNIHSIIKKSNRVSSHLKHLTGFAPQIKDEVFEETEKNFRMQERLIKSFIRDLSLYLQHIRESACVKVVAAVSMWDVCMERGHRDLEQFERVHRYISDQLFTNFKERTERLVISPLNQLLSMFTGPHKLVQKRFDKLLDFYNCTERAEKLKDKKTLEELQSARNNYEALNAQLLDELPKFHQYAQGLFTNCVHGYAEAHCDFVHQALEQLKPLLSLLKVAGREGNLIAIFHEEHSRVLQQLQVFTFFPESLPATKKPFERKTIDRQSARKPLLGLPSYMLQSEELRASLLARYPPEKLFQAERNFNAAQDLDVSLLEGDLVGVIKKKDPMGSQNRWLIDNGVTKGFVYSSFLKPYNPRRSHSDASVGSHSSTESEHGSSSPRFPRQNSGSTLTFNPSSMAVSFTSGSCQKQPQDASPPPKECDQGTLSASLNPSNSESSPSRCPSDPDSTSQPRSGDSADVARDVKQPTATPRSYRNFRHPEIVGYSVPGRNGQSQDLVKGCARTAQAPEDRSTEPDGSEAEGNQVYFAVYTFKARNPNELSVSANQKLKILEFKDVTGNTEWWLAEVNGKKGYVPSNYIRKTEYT

cysteines in MDA-MB-231 and Ramos cells (Homo sapiens, UniProt P48643), sequence (P48643 whole entry): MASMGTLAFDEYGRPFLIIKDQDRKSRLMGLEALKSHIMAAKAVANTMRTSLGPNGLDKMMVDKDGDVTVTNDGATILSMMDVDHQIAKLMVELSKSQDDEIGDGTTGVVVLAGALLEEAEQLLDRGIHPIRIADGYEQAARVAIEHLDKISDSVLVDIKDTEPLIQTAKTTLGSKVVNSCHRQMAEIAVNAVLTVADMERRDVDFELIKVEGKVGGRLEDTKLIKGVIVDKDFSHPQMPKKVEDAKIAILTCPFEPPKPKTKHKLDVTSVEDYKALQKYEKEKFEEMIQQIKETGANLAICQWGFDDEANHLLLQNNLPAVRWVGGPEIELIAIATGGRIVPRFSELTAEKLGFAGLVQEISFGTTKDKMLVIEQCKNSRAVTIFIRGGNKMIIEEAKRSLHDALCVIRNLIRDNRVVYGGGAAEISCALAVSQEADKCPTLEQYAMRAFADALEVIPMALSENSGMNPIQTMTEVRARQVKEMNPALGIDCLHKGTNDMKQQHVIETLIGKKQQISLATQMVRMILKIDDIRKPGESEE
cysteines in MDA-MB-231 and Ramos cells (Homo sapiens, UniProt P04818), sequence (P04818 whole entry): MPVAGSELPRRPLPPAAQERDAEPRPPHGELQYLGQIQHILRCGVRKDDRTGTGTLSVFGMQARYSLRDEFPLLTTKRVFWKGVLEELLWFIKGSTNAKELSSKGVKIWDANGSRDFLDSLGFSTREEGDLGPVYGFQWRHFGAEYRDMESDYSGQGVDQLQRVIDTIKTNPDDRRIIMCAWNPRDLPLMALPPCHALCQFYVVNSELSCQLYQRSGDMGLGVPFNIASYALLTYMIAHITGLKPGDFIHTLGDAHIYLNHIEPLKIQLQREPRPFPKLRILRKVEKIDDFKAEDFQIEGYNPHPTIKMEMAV
cysteines in MDA-MB-231 and Ramos cells (Homo sapiens, UniProt Q9UNI6), sequence (Q9UNI6 whole entry): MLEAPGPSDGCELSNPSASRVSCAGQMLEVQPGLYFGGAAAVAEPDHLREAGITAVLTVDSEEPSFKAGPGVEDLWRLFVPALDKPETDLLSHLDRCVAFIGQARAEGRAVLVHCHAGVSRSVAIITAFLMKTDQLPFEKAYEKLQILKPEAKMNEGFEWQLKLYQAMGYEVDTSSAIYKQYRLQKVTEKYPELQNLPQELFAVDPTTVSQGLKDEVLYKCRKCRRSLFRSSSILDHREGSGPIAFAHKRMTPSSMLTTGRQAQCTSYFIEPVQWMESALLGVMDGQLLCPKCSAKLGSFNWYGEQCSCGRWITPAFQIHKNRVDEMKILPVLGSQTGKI
cysteines in MDA-MB-231 and Ramos cells (Homo sapiens, UniProt Q06203), sequence (Q06203 12-517): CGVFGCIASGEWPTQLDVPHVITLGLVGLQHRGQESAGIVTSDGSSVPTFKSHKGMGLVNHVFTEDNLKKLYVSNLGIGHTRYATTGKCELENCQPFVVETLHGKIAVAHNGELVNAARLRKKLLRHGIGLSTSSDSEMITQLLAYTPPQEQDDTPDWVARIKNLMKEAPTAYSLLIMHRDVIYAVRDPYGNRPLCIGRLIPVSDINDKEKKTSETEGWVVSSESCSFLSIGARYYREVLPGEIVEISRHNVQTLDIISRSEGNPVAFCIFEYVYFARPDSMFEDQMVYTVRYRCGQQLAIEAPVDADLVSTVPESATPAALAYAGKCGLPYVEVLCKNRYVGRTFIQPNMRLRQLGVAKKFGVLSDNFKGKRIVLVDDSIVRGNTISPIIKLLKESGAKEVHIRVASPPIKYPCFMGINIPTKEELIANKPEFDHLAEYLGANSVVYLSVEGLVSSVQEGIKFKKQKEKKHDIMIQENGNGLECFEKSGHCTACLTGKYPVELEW
cysteines in MDA-MB-231 and Ramos cells (Homo sapiens, UniProt P51812), sequence (P51812 whole entry): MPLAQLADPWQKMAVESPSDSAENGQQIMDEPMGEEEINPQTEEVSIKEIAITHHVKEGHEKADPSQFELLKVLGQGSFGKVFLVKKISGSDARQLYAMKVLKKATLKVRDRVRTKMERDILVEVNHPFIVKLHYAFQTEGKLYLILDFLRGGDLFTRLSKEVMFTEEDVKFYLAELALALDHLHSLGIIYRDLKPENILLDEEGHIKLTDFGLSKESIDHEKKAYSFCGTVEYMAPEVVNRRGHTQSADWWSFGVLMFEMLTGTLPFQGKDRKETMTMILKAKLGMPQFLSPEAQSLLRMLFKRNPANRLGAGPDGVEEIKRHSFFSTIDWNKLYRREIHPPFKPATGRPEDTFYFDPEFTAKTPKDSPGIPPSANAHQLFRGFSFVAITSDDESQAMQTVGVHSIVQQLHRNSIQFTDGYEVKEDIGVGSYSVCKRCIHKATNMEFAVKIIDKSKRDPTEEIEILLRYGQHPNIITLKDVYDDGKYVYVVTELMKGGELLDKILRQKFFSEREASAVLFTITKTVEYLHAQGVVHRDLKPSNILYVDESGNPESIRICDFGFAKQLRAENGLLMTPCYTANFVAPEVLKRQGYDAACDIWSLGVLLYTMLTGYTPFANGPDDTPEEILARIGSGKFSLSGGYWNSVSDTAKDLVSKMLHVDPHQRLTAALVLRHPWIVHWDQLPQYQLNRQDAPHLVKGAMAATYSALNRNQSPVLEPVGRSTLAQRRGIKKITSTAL

Cn1cc(S(=O)(=O)N2CCOCC2)cc1C(=O)NC(=O)CCl [compound 11]
isoTOP-ABPP ratio, cysteine Q9P0J1_C149 ([1]; 100 μM in situ 231): 1.4 | isoTOP-ABPP ratio P48643_C253 ([2]; 100 μM in situ 231): 0.6 | isoTOP-ABPP ratio, cysteine Q96RU2_C171 ([3]; 100 μM in situ 231): 2.2 | isoTOP-ABPP ratio, cysteine P51812_C436 ([4]; 100 μM in situ 231): 0.5

C=CC(=O)Nc1cc(F)c(N2CCN(C(=O)OC(C)(C)C)CC2)c(F)c1 [compound 38]
isoTOP-ABPP ratio Q06203_C100 [5]; 231: 1.2 | isoTOP-ABPP ratio Q9UNI6_C265 [6]: 1.0 | isoTOP-ABPP ratio P53384_C235 [7]: 2.0 | isoTOP-ABPP ratio O14733_C131 [8]; 231: 20.0 | isoTOP-ABPP ratio Q9P0J1_C149 ([1]; 200 μM, insitu, 231): 0.9 | isoTOP-ABPP ratio P04818_C199 [9]; 231: 20.0 | isoTOP-ABPP ratio P48643_C253 ([2]; 200 μM, insitu, 231): 1.1 | isoTOP-ABPP ratio, Q96RU2_C171 ([3]; 200 μM, insitu, 231): 0.8

CC1CCc2ccccc2N1C(=O)CCl (stereo not shown) [compound 45]
isoTOP-ABPP ratio Q9UNI6_C265 [6]: 7.5 | isoTOP-ABPP ratio P04818_C199 [9]; 231: 20.0 | isoTOP-ABPP ratio P48643_C253 ([2]; 200 μM, insitu, 231): 1.2

COc1ccc2c(c1)CCCN2C(=O)CCl [compound 2]
isoTOP-ABPP reactivity Q9P0J1_C149 PDP1 ([1]; 200 μM, insitu, 231): 20.0 | isoTOP-ABPP reactivity P04818_C199 TYMS [9]; 231: 20.0

COc1cc2c(cc1OC)CN(C(=O)CCl)CC2 [compound 8]
isoTOP-ABPP reactivity P53384_C235 NUBP1 [7]: 0.6 | isoTOP-ABPP reactivity P48643_C253 CCT5 ([2]; 200 μM, insitu, 231): 0.8 | isoTOP-ABPP reactivity Q96RU2_C171 USP28 ([3]; 200 μM, insitu, 231): 1.2

CC(C)CCOCCNC(=O)CCl [compound 27]
isoTOP-ABPP ratio Q06203_C100 [5]; 231: 0.8 | isoTOP-ABPP ratio Q9UNI6_C265 [6]: 0.6 | isoTOP-ABPP ratio P04818_C199 [9]; 231: 0.5 | isoTOP-ABPP ratio, Q96RU2_C171 ([3]; 200 μM, insitu, 231): 1.1

O=C(CCl)N1CCN(S(=O)(=O)c2ccccc2F)CC1 [compound 10]
isoTOP-ABPP ratio, cysteine Q06203_C100 ([5]; ramos): 20.0 | isoTOP-ABPP ratio, cysteine Q9UNI6_C265 [6]: 1.2 | isoTOP-ABPP ratio, cysteine O14733_C131 [8]; 231: 1.8 | isoTOP-ABPP ratio, cysteine Q9P0J1_C149 ([1]; 200 μM, insitu, 231): 18.0 | isoTOP-ABPP ratio, cysteine Q6XZF7_C691 [10]; 231: 20.0 | isoTOP-ABPP ratio, cysteine Q6XZF7_C691 ([10]; ramos): 20.0 | isoTOP-ABPP ratio, cysteine P04818_C199 [9]; 231: 1.5 | isoTOP-ABPP ratio P48643_C253 ([2]; 200 μM, insitu, ramos): 0.9

O=C(CCl)N1CCN(CC(=O)N2CCOCC2)CC1 [compound 29]
isoTOP-ABPP ratio Q06203_C100 ([5]; ramos): 1.6 | isoTOP-ABPP ratio O14733_C131 ([8]; ramos): 1.0 | isoTOP-ABPP ratio Q9P0J1_C149 ([1]; 200 μM, insitu, ramos): 1.0 | isoTOP-ABPP ratio P04818_C199 ([9]; ramos): 2.5 | isoTOP-ABPP ratio P51812_C436 ([4]; 200 μM, insitu, ramos): 1.3

C=CC(=O)N(Cc1cccnc1)c1cc(C(F)(F)F)cc(C(F)(F)F)c1 [compound 31]
isoTOP-ABPP ratio Q06203_C100 [5]; 231: 0.6 | isoTOP-ABPP ratio Q06203_C100 ([5]; ramos): 1.2 | isoTOP-ABPP ratio P53384_C235 [7]: 0.7 | isoTOP-ABPP ratio Q6XZF7_C691 [10]; 231: 2.3 | isoTOP-ABPP ratio P48643_C253 ([2]; 200 μM, insitu, 231): 0.5 | isoTOP-ABPP ratio P48643_C253 ([2]; 200 μM, insitu, ramos): 1.0

Reference: patent US10670605B2, “Cysteine reactive probes and uses thereof” (The Scripps Research Institute, priority 2015, dated 2020)
